Here are results for 15 compounds from patent US20230107941A1, “HEPATITIS B CAPSID ASSEMBLY MODULATORS” (Venatorx Pharmaceuticals, Inc., priority 2019, published 2023).

Data set [1] in a line: In vitro cytotoxicity assay (MTT cell viability) in HepG2 cells. Conditions: human. Type of data set: cell-based, human. The method, then:
To evaluate antiviral selectivity, the cytotoxic activity of each compound was determined using a standard cell viability assay performed on the parental HepG2 cell line. Cell viability was determined by measuring the conversion of 3-(4,5-dimethylthiazol-2-yl)-2,5-diphenyltetrazolium bromide (MTT) to the insoluble formazan salt crystal that occurs in live cells. Briefly, HepG2 cells were seeded in 96-well plates at a density of 20,000 cells per well in […] (complete growth medium) and allowed to adhere overnight in a 37° C., […] humidified incubator. The next day, test agents were prepared by performing 8 half-log10 serial dilutions in 100% DMSO at 200× the final desired concentration in the assay. Compounds were tested over a range of concentrations from 30 μM to 1.0 nM in the assay. HepG2 cells were incubated in the presence of various concentrations of CAMs for 7 days in a 37° C., […] humidified incubator. At the completion of the 7-day incubation period, MTT reagent was added to each well and the mixture was incubated for an additional 3-4 hours. At the completion of the incubation period, all wells were aspirated to remove the culture medium. The formazan crystals were solubilized from the cell monolayers with 100% DMSO. Plates were briefly mixed on an orbital shaker and absorbance was measured at 492 nm using a Perkin-Elmer EnVision multi-label plate reader. All absorbance values were converted to a percentage of the signal obtained from the vehicle treated controls. Absorbance values at 492 nm are directly proportional to the number of viable cells present in the sample. A CC50 value (cytotoxic concentration that results in loss of 50% cell viability) was calculated from the dose-response curve by 4-parameter, non-linear regression analysis using the GraphPad Prism software. The positive control compound, staurosporine, reduced the viability of HepG2 cells in a dose-dependent manner (CC50=100 nM).

Data set [2] relates to HBV. In words: In vitro antiviral assay: anti-HBV replication in HepAD38 cells (extracellular HBV DNA by QPCR). The data set is classed as cell-based, hepatitis B virus (genotype D, serotype ayw). Conditions: Hepatitis B virus, HePAD38, 168 h, 7 days incubation, extracellular HBV DNA by QPCR, read-out: Anti-HBV EC50. As for the experimental part:
The anti-HBV activity of the Capsid Assembly Modulators (CAMs) was evaluated in a cell based assay utilizing the human hepatoma cell line HepAD38 (Ladner, S K., et al., 1998). HepAD38 cells were derived from the parental line, HepG2, that were stably transfected with a construct containing an HBV genome (genotype D, serotype ayw) under the control of a tetracycline repressible CMV promoter. Upon removal of tetracycline, viral pre-genomic RNA (pgRNA) and mRNAs are expressed and infectious viral particles are assembled and secreted into the culture medium providing a reliable, robust system to measure multiple steps of the HBV life cycle. Disruption of capsid formation results in reduced levels of DNA-containing virus particles that are released into the culture supernatant. To quantify the effect of CAMs on HBV replication, we developed a sensitive QPCR-based assay that measures extracellular HBV DNA levels upon treatment of HepAD38 cells with various concentrations of test compounds.
HepAD38 cells were maintained in DMEM/F12 medium containing 10% FBS, 400 μg/mL G418 and 0.3 μg/mL tetracycline (tet+ media) to maintain repression of HBV replication. To evaluate each compound, HepAD38 cells were seeded into 24-well collagen coated culture plates (Corning BioCoat) at a density of 200,000 cells per well in 1 mL of medium without tetracycline (tet-media) and allowed to adhere overnight at 37° C., 5% CO2 in a humidified incubator. The following day, media was refreshed and a dose range of each compound was prepared by performing 1 log10 serial dilutions in 100% DMSO at 200× the desired assay concentration. Dilutions were then added to the cells resulting in a final dose range of 1 μM to 10 pM and the plates were returned to the incubator. Following 7 days of incubation, culture supernatants were harvested and HBV DNA levels were evaluated by QPCR and compared to the vehicle treated control wells (i.e. DMSO alone).
To quantify HBV DNA levels, cell culture supernatants were diluted 1:10 in sterile, nuclease-free water (Gibco). The diluted supernatants were subsequently added to a PCR master mix containing 1× Roche Light Cycler Master Mix, 0.5 μM forward primer, 0.5 μM reverse primer (Fwd: 5′-[…] (SEQ ID NO 1); Rev: 5′-[…] (SEQ ID NO 2)), 0.2 μM Roche Universal Probe Library Probe 25. The volume was brought to 20 μL with nuclease-free water and amplification of the HBV target sequence was performed using a Roche LightCycler 480 QPCR instrument. PCR extended out to 45 cycles with each cycle consisting of a denaturation step at 95° C. for 10 sec., followed by an annealing step at 60° C. for 10 sec. and a brief extension step at 72° C. for 1 sec.
Extracellular HBV DNA levels, expressed in copies/mL, were determined by comparison to a standard curve (10^2-10^9 copies/mL) using the Roche LightCycler analysis software. These values were subsequently converted to percent inhibition of HBV replication by dividing the HBV DNA levels in the experimental samples with those obtained from the vehicle control (˜1-2×10^5 copies/mL). Potency, expressed as an EC50 (the effective concentration required to inhibit 50% of HBV replication), was calculated from the dose-response curve using a 4-parameter non-linear regression analysis (GraphPad Prism). The nucleoside analog inhibitor entecavir was used as a positive control to validate each assay run. The EC50 value of entecavir in the HepAD38 assay was 0.5 nM, as previously reported in the literature.

Turning to `Cc1c(C(=O)Nc2cc(F)c(F)c(F)c2)c(C)n(C)c1C(=O)C(=O)N[C@]1(C)CC[C@@H](O)CC1` [Example 25, 5-(2-(((1r,4r)-4-hydroxy-1-methylcyclohexyl)amino)-2-oxoacetyl)-1,2,4-trimethyl-N-(3,4,5-trifluorophenyl)-1H-pyrrole-3-carboxamide], in data set [1], the CC50 (as a rule, the concentration that lowers cell viability or growth by half) at 7 days is over 30 µM. Besides, the EC50 (as a rule, the concentration needed to bring the measured effect to its halfway point) in data set [2] is under 0.05 µM.

Regarding `CCOC(=O)CO[C@H]1CC[C@@H](NC(=O)C(=O)c2c(C)c(C(=O)Nc3ccc(F)c(C)c3)c(C)n2C)CC1` [Example 26, ethyl 2-(((1s,4s)-4-(2-(4-((4-fluoro-3-methylphenyl)carbamoyl)-1,3,5-trimethyl-1H-pyrrol-2-yl)-2-oxoacetamido)cyclohexyl)oxy) acetate], the CC50 at 7 days in data set [1] is over 30 µM. Also, in data set [2], the EC50 was over 1 µM.

`Cc1cc(NC(=O)c2c(C)c(C(=O)C(=O)NC3(C)CCN(CC(=O)O)CC3)n(C)c2C)ccc1F` [Example 27, 2-(4-(2-(4-((4-fluoro-3-methylphenyl)carbamoyl)-1,3,5-trimethyl-1H-pyrrol-2-yl)-2-oxoacetamido)-4-methylpiperidin-1-yl)acetic acid] had a CC50 at 7 days in data set [1] of over 30 µM. Moreover, in data set [2], the EC50 was in the range of 0.5 to 1 µM.

For `Cc1cc(NC(=O)c2c(C)c(C(=O)C(=O)N[C@H]3CCN(CC(=O)O)C3)n(C)c2C)ccc1F` [Example 28, (S)-2-(3-(2-(4-((4-fluoro-3-methylphenyl)carbamoyl)-1,3,5-trimethyl-1H-pyrrol-2-yl)-2-oxoacetamido)pyrrolidin-1-yl)acetic acid], the CC50 at 7 days in data set [1] is over 30 µM. The EC50 in data set [2] is over 1 µM.

For the compound `Cc1c(C(=O)NC23CCC(O)(CC2)CC3)c(C)n(C)c1C(=O)C(=O)Nc1cccnc1` [Example 29, N-(4-hydroxybicyclo[2.2.2]octan-1-yl)-1,2,4-trimethyl-5-(2-oxo-2-(pyridin-3-ylamino)acetyl)-1H-pyrrole-3-carboxamide], the CC50 at 7 days in data set [1] is over 30 µM. In data set [2], the EC50 was over 1 µM.

`Cc1noc(C2(NC(=O)c3c(C)c(C(=O)C(=O)Nc4cccnc4)n(C)c3C)CC2)n1` [Example 30, 1,2,4-trimethyl-N-(1-(3-methyl-1,2,4-oxadiazol-5-yl)cyclopropyl)-5-(2-oxo-2-(pyridin-3-ylamino)acetyl)-1H-pyrrole-3-carboxamide] yielded a CC50 at 7 days in data set [1] of over 30 µM. Further, the EC50 in data set [2] is over 1 µM.

Consider `Cc1cc(NC(=O)c2c(C)c(C(=O)C(=O)NC3CC(S(C)(=O)=O)C3)n(C)c2C)ccc1F` (stereo not drawn) [Example 31, N-(4-fluoro-3-methylphenyl)-1,2,4-trimethyl-5-(2-(((1s,3s)-3-(methylsulfonyl)cyclobutyl)amino)-2-oxoacetyl)-1H-pyrrole-3-carboxamide], for which the CC50 at 7 days in data set [1] is over 30 µM. Further, the EC50 in data set [2] is under 0.05 µM.

Turning to `Cc1c(C(=O)Nc2ccc(F)c(F)c2)c2n(c1C(=O)C(=O)NC1(C)CCN(C(=O)Nc3ccc(F)c(F)c3)CC1)CCCC2` [Example 33, N-(3,4-difluorophenyl)-3-(2-((1-((3,4-difluorophenyl)carbamoyl)-4-methylpiperidin-4-yl)amino)-2-oxoacetyl)-2-methyl-5,6,7,8-tetrahydroindolizine-1-carboxamide], the CC50 at 7 days in data set [1] fell in the range of 0.5 to 4.99 µM. Also, the EC50 in data set [2] is under 0.05 µM.

Compound `Cc1cc(NC(=O)c2c(C)c(C(=O)C(=O)N[C@@H]3CCCN(C(=O)Nc4ccc(F)c(F)c4)C3)n(C)c2C)ccc1F` [Example 35, (R)-N-(3,4-difluorophenyl)-3-(2-(4-((4-fluoro-3-methylphenyl)carbamoyl)-1,3,5-trimethyl-1H-pyrrol-2-yl)-2-oxoacetamido)piperidine-1-carboxamide] displayed a CC50 at 7 days in data set [1] of 5 to 30 µM. In addition, the EC50 in data set [2] lay within 0.5 to 1 µM.

Regarding `Cc1cc(NC(=O)c2c(C)c(C(=O)C(=O)NC3(C)CCN(C(=O)N4CCOCC4)CC3)n(C)c2C)ccc1F` [Example 36, N-(4-fluoro-3-methylphenyl)-1,2,4-trimethyl-5-(2-((4-methyl-1-(morpholine-4-carbonyl)piperidin-4-yl)amino)-2-oxoacetyl)-1H-pyrrole-3-carboxamide], the CC50 at 7 days in data set [1] was over 30 µM. For the same compound, the EC50 in data set [2] is under 0.05 µM.

Consider `Cc1c(C(=O)Nc2ccc(F)c(F)c2)c2n(c1C(=O)C(=O)N[C@@H]1COC[C@H]1N1CCOCC1)CCCC2` [Example 37, N-(3,4-difluorophenyl)-2-methyl-3-(2-(((3S,4S)-4-morpholinotetrahydrofuran-3-yl)amino)-2-oxoacetyl)-5,6,7,8-tetrahydroindolizine-1-carboxamide], for which the CC50 at 7 days in data set [1] was over 30 µM. Besides, in data set [2], the EC50 was 0.05 to 0.499 µM.

`CCC1(NC(=O)C(=O)c2c(C)c(C(=O)Nc3ccc(F)c(C)c3)c(C)n2C)CCN(C(=O)c2cnn(C)c2)CC1` [Example 38, 5-(2-((4-ethyl-1-(1-methyl-1H-pyrazole-4-carbonyl)piperidin-4-yl)amino)-2-oxoacetyl)-N-(4-fluoro-3-methylphenyl)-1,2,4-trimethyl-1H-pyrrole-3-carboxamide]: the CC50 at 7 days in data set [1] was over 30 µM. In addition, the EC50 in data set [2] was under 0.05 µM.

`CCC1(NC(=O)C(=O)c2c(C)c(C(=O)Nc3ccc(F)c(C)c3)c(C)n2C)CCN(C(=O)c2ccnn2C)CC1` [Example 39, 5-(2-((4-ethyl-1-(1-methyl-1H-pyrazole-5-carbonyl)piperidin-4-yl)amino)-2-oxoacetyl)-N-(4-fluoro-3-methylphenyl)-1,2,4-trimethyl-1H-pyrrole-3-carboxamide] showed a half-maximal cytotoxic concentration (CC50) at 7 days in data set [1] of over 30 µM. In addition, the EC50 in data set [2] is under 0.05 µM.

`CCC1(NC(=O)C(=O)c2c(C)c(C(=O)Nc3ccc(F)c(C)c3)c(C)n2C)CCN(C(=O)c2cn(C)nc2C(F)F)CC1` [Example 40, 5-(2-((1-(3-(difluoromethyl)-1-methyl-1H-pyrazole-4-carbonyl)-4-ethylpiperidin-4-yl)amino)-2-oxoacetyl)-N-(4-fluoro-3-methylphenyl)-1,2,4-trimethyl-1H-pyrrole-3-carboxamide] came in with a CC50 at 7 days in data set [1] of over 30 µM. The EC50 in data set [2] was under 0.05 µM.

In data set [1], `CCC1(NC(=O)C(=O)c2c(C)c(C(=O)Nc3ccc(F)c(C)c3)c(C)n2C)CCN(C(C)=O)CC1` [Example 41, 5-(2-((1-acetyl-4-ethylpiperidin-4-yl)amino)-2-oxoacetyl)-N-(4-fluoro-3-methylphenyl)-1,2,4-trimethyl-1H-pyrrole-3-carboxamide] registered a CC50 at 7 days of over 30 µM. Also, the EC50 in data set [2] is under 0.05 µM.
